Experimental data as given in EP2886536A1 (priority 2013, dated 2015).
Where a name gives a salt, the structure may show the parent alone.

What was measured:
[1] = tested on: SK-Mel3; test: cells; assay type: cell-based; details: Homo sapiens, SK-MEL3, 96 h, read-out: IC50 values
[2] = tested on: HEL 92.1.7; test: cells; assay type: cell-based; details: Homo sapiens, HEL 92.1.7, 96 h, read-out: IC50 values
[3] = tested on: Jurkat; test: cells; assay type: cell-based; details: Homo sapiens, 96 h, read-out: IC50 values
[4] = tested on: U-937; test: cells; assay type: cell-based; details: Homo sapiens, U-937, 96 h, read-out: IC50 values
[5] = tested on: Capan-1; test: cells; assay type: cell-based; details: Homo sapiens, CAPAN-1, 96 h, read-out: IC50 values
[6] = tested on: LnCap clone FGC; test: cells; assay type: cell-based; details: Homo sapiens, 96 h, read-out: IC50 values
[7] = tested on: NCl-H460; test: cells; assay type: cell-based; details: 96 h, read-out: IC50 values
[8] = tested on: HT-29; test: cells; assay type: cell-based; details: Homo sapiens, HT-29, 96 h, read-out: IC50 values
[9] = tested on: MG-63; test: cells; assay type: cell-based; details: Homo sapiens, MG-63, 96 h, read-out: IC50 values
[10] = tested on: SK-ES1; test: cells; assay type: cell-based; details: Homo sapiens, SK-ES1, 96 h, read-out: IC50 values
[11] = physchem; details: buffer, pH 7.2
[12] = in vitro; details: mouse, plasma
[13] = in vitro; details: human, plasma

Row | SMILES | IC50 [1] [µM] | IC50 [2] [µM] | IC50 [3] [µM] | IC50 [4] [µM] | IC50 [5] [µM] | IC50 [6] [µM] | IC50 [7] [µM] | IC50 [8] [µM] | IC50 [9] [µM] | IC50 [10] [µM] | half-life [11] [min] | half-life [12] [min] | half-life [13] [min]
1 | CCOC(=O)CCCc1nc2ccc(N(CCCl)CCCl)cc2n1C [iso-bendamustine ethyl ester, ethyl 4-{6-[bis(2-chloroethyl)amino]-1-methyl-1H-benzimidazol-2-yl}butanoate] | 11.7 ± 2.5 | 3.5 ± 0.3 | 3.9 ± 0.3 | 1.6 ± 0.03 | 0.91 ± 0.15 | 1.5 ± 0.34 | 5.4 ± 0.2 | 11 ± 1.1 | 1.9 ± 0.1 | 0.24 ± 0.04 | 15.3 ± 3.8 | < 2 | 141 ± 6.3
2 | Cl.Cn1c(CCCC(=O)O)nc2ccc(N(CCCl)CCCl)cc21 [iso-bendamustine-HCl, 4-{6-[bis(2-chloroethyl)amino]-1-methyl-1H-benzimidazol-2-yl)butanoic acid hydrochloride] | > 100 | 76.5 ± 4.5 | 59.5 ± 4 | 59.8 ± 5.2 | 24.6 ± 4.4 | 18.9 ± 2.6 | > 100 | > 100 | 50.1 ± 5.5 | 9.6 ± 1.5 | 11.6 ± 1.9 | 60.5 ± 2.7 | 83.8 ± 9.3
3 | Cn1c(CCCC(=O)O)nc2cc(N(CCCl)CCCl)ccc21 [bendamustine-HCl, 4-{5-[bis(2-chloroethyl)amino]-1-methyl-1H-benzimidazol-2-yl}butanoic acid, reference compound] | > 100 | 84 ± 7.7 | 42.6 ± 5.6 | 91.9 ± 16.4 | 25.2 ± 5.4 | 71.6 ± 5.4 | 89.5 ± 10.4 | > 100 | 55 ± 3.3 | 11 ± 1.6 | 10.8 ± 2.9 | 35 ± 2.2 | 131 ± 10.2
